In paper PMC10398685 (ACS Omega, 2023):

Experiments:
Calu-3 cells = test: Steady-state intracellular uptake in Calu-3 cells; type: in vitro ADME; conditions: Calu-3, 60 min incubation, 50 μM at t = 0
From the text: (§1) While an enzymatic MTase assay represents a valuable fast screening platform providing the information that can be directly used for SAR analyses, it is not fully predictive for the compounds’ activity in whole cells. In order to verify the ability of the compounds to reach the intracellular compartment, we measured the steady-state accumulation of representative compounds in intact CCRF-CEM, VERO-E6, and Calu-3 cells (Tables 3 and S2). […] Compound 12q was almost completely cleared from the medium after 60 min incubation with the cells rendering it among the most permeable compounds of the series based on Kp values. It should be noted that the apparent intracellular concentration of the compounds may be biased by their potential metabolism. Therefore, we decided to subject the selected derivatives to in vitro stability studies. […]
(§2) methyltransferase activity as counts per minute (CPM). The CPM measurements in the absence of compound (5% DMSO) for each enzyme was defined as 100% activity.
(§3) 3.3. Intracellular Uptake
(§4) Steady-state cellular uptake was measured in CCRF-CEM cells (ATCC, CRL-119), VERO-E6 cells (ATCC, CRL-1586) and Calu-3 cells (HTB-55), respectively. Suspension cells (CCRF-CEM) were treated as follows: Prior to the experiment, cells were washed by centrifugation (250 x g, 5 min) in prewarmed (37 °C) serum-free RPMI medium and resuspended in the same vehicle to a concentration of 2 x 10^7 cells per mL. The cell suspension was distributed into the microtubes in 500 μL aliquots (10^7 cells), and the uptake process was initiated by the addition of 2.5 μL of the 10 mM DMSO solutions of the compounds (50 μM final conc.). Samples were incubated for 60 min at 37 °C in a CO 2 incubator using a rotary stirrer. The uptake was terminated by centrifugation at 900 x g for 5 min, at +4 °C. The medium was stored at −20 °C for later analysis of the extracellular concentration of the compounds. The cells were washed two times with 1 mL PBS (900 x g, 5 min, +4 °C), and also stored at −20 °C for subsequent analysis of the intracellular concentration of the compounds. At the day of the analysis, both media and the pelleted cells were quickly thawed. The cell pellets were extracted with 200 μL of ice-cold methanol by vigorous shaking, further diluted 1:1 with water and centrifuged at 20 000 x g for 10 min. As for the media samples, 10 μL aliquots were extracted with 990 μL of 50% methanol. The samples were then transferred to ECHO® -compatible 384-well plates and the amount of analytes were quantified by the ECHO -MS® System (Sciex) where acoustic droplet ejection module is coupled with Sciex 6500® triple quadrupole mass spectrometer operating with an electrospray ionization source. Spectrometer was run in the multiple reaction monitoring (MRM) mode. When necessary, the processed samples were further diluted in 50% methanol to fit in the calibration range. Calibration curves of the compounds in 50% methanol were measured alongside the samples within the same run. The ra tio between the total compound concentration in the cells and compound concentration in the medium (K p) at t=60 min was calculated according to: Kp = (Acell / Vcell) / Cmedium, where Acell is the amount of compound in the cell lysate, Vcell is the CCRF-CEM cell volume (3.38 μL/10^7 cells)16 and Cmedium is the compound concentration in the medium sample after correcting for sample dilution. Experiments were performed in duplicates.
(§5) For adherent cells (Vero E6 and Calu-3), the workflow was modified as follows: Cells were seeded on 6-well plates at a concentration of […] and 8.2 x 10^5 cells/well for Vero E6 and Calu-3, respectively, in 3 mL of serum-free culture media. The cells were left to attach overnight, the medium was then aspirated and replenished with 2 mL of fresh media containing the compounds (50 µM final conc). After 60 min at 37 °C the media was aspirated and the cells were washed twice with 1 mL of PBS. Then, 1 mL of fresh PBS was added and the cells were […]

[1] = Steady-state intracellular uptake in Calu-3 cells; type: in vitro ADME; conditions: human, Calu-3 cells; Calu-3, 60 min incubation, 50 μM at t = 0; read-out: Kp (intracellular accumulation ratio IC/EC) (converted)
From the text: as §1, §2, §3, §4, §5

Caco-2 monolayers = test: Caco-2 permeability assay; type: in vitro ADME; conditions: Caco-2, 5 µM, pH 7.4/7.4, 3 h
Protocol: 3.6. Caco-2 permeability assay
Transepithelial bi-directional transport of tested compounds (5 µM, pH 7.4/7.4) across the Caco-2 monolayers was studied using the BD BioCoat HTS Caco -2 assay system (BD Biosciences, Bedford, MA) as described in detail elsewhere.17 Aliquots were collected from the donor and acceptor compartment at the end of transport period (3 h), integrity of monolayers were verified using Lucifer Yellow dye and the compounds were quantified using LC-MS/MS (Sciex 6500® triple quadrupole). The apparent permeability coefficient (Papp) was calculated from the following equation: Papp = (dQ / dt) / C0 * A, where dQ/dt is the rate of absorption of the drug across the cells, C0 is the donor compartment concentration at time zero, and A is the area of the monolayer. Efflux ratio was expressed as (Papp B-A) / (Papp A-B). Recovery (%) was determined as (total compound mass in donor and receiver compartments at the end of the incubation / initial compound mass in the donor compartment) x 100.

[2] = tested on: 6 human methyltransferases (PRMT6, SUV39H1, SUV39H2, SETDB1, SETD7, and MLL1); type: biochemical; conditions: tested at 1 μM by SPA assay, duplicate

SMILES	EC (extracellular concentration in the media at t = 60 min) ± sd (Calu-3 cells)	Kp at 1 h, 50 µM [1]	Papp B-A (Caco-2 monolayers)	IC (intracellular concentration in the cells at t = 60 min) ± sd (Calu-3 cells)	Selectivity against 6 human methyltransferases [2]
CCN(C[C@H]1O[C@@H](n2cc(C#Cc3cnc4ccccc4c3)c3c(N)ncnc32)[C@H](O)[C@@H]1O)S(=O)(=O)c1ccc(OC)c(C#N)c1 [Compound 12e]	5 ± 4 µM	1770	–	–	–
COc1ccc(S(=O)(=O)N(C)C[C@H]2O[C@@H](n3cc(C#Cc4cnc5ccccc5c4)c4c(N)ncnc43)[C@H](O)[C@@H]2O)cc1C#N [Compound 12q]	5.6 ± 5.7 µM	–	0.0 ± 0.0 x10-6 (cm/s)	89,640 ± 6514 μM	selective
COc1ccc(S(=O)(=O)N(C)C[C@H]2O[C@@H](n3cc(C#Cc4ccc(C(N)=O)cc4)c4c(N)ncnc43)[C@H](O)[C@@H]2O)cc1C#N [Compound 12r]	4.0 ± 0.2 µM	1250	–	–	selective
COc1ccc(S(=O)(=O)N(C)C[C@H]2O[C@@H](n3cc(C#Cc4cccnc4)c4c(N)ncnc43)[C@H](O)[C@@H]2O)cc1C#N [Compound 12s]	14.7 ± 0.8 µM	106	–	–	selective
